Here are results for 25 compounds from PubChem BioAssay (NCI).

“And” between values parts separate entries of the source, which are not always exact repeats. Identical values can stand only once.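 Method: 48-hour compound exposure of cells in 96-well plates, five concentrations, linear interpolation of endpoints. Abbreviation: GI50, concentration required for 50% inhibition of growth. TGI: concentration producing complete growth inhibition.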

Test in all cases: NCI-60 cell line screen, 48 h
Assay [1] relates to A549 NSCLC.
Assay [2] deals with K-562 leukemia.
Assay [3] relates to M14 melanoma.
In assay [4] the test system is NCI-H226 lung.
Assay [5] concerns NCI-H460 lung.
Assay [6] relates to SF-295 CNS.
Assay [7] deals with TK-10 renal.
For assay [8], the system named is UACC-62 melanoma.
The test system of assay [9] is A498 renal.
The subject of assay [10] is RXF 393 renal.

`CO/N=C(/C)c1cccc(Nc2cc(-n3nnc4ccccc43)nc3ccccc23)c1`: the GI50 is 38.7 µM in assay [1]; 15.2 µM in assay [2]; 37.4 µM in [3]; 27.3 µM in assay [4]; 28 µM in assay [5]; 15 µM in [6]. In addition, the results for the GI50 in assay [7] and in assay [8] were 26 µM and 25.2 µM, respectively. Further, the TGI in assay [1] is over 100 µM; in assay [2], over 100 µM; in [3], over 100 µM; in assay [4], over 100 µM; in assay [5], over 100 µM; in assay [6], 64.1 µM. In addition, the TGI in [7] and in [8] was over 100 µM throughout.
Consider `CN1CC(=O)N2Cc3ccccc3-n3cccc3C2C1` (centres undefined), for which the TGI in [9], in assay [1], in assay [3], in assay [5], in [10] and in [6] was over 100 µM in each case. Moreover, the TGI in assay [7] and in assay [8] was over 100 µM throughout.
`CC12C/C(=C\c3ccccc3)C(=O)C3C1CCCC32`: the TGI in assay [9], in assay [1], in [2], in assay [3], in assay [4] and in assay [5] was over 100 µM in each case. Moreover, the TGI in assay [6], in assay [7] and in [8] was over 100 µM throughout.
With `CCCCCCCCCCCCCC(=O)OCC(C[As](=O)(O)O)OC(=O)CCCCCCCCCCCCC` (centres undefined), the TGI in assay [9], in assay [1], in assay [2], in [3], in assay [4] and in assay [5] was over 100 µM each time. The TGI in [10], in [7] and in assay [8] was over 100 µM each time.
`Cc1cc(Nc2ccc(NC(=O)c3ccc(Nc4ccnc5ccccc45)cc3)cc2)nc(N)n1`: the GI50 in [9] is 5.13 µM; in assay [1], 14.6 µM; in [3], 7.62 µM; in [4], 2.42 µM; in [10], 2.76 µM; in assay [6], 4.81 µM. For the same compound, the results for the GI50 in assay [7] and in assay [8] were 19.8 µM and 2.33 µM, respectively. Further, the TGI in [9] is over 100 µM; in [1], over 100 µM; in [3], over 100 µM; in assay [4], 5 µM; in [10] it was 9.82 µM; in assay [6], 39.6 µM. Further, the TGI in [7] was over 100 µM; in assay [8] it was 5.84 µM.
Turning to `CC(C)C(CCl)NC(=O)c1cccc(C(=O)N[C@H](CCl)C(C)C)n1` (stereo in doubt), the TGI in assay [9], in [1], in assay [2], in assay [3], in [4] and in [5] was over 100 µM each time. Further, the TGI in assay [10], in assay [6] and in assay [7] was over 100 µM each time.
With `CC[As](CC)SC[C@H](C)C(=O)N1CCC[C@H]1C(=O)O`, the GI50 in [9] is 0.296 µM; in [2], under 0.01 µM; in assay [3] it was 0.0257 µM; in assay [4] it was 0.201 µM; in assay [5] it was 0.418 µM; in [10], under 0.0297 µM. The GI50 in assay [6] was 0.743 µM; in [7], 0.113 µM; in assay [8] it was 0.149 µM. Moreover, the TGI in [9] was found to be 0.866 µM; in [2] it was 0.0615 µM; in [3] it was 0.0895 µM; in assay [4], 0.614 µM; in assay [5], 2.17 µM; in assay [10] it was 0.475 µM. The results for the TGI in assay [6], in [7] and in assay [8] were 2 µM, 0.396 µM and 0.538 µM, respectively.
With `O=C(/C=C/c1ccccc1)CCC1C(=O)c2ccccc2C1=O`, the TGI in [9], in [1], in [2], in [3], in assay [4] and in assay [5] was over 100 µM in each case. For the same compound, the TGI in assay [10], in assay [6] and in [8] was over 100 µM in each case.
Take `COc1ccc(/C=C\[N+](=O)[O-])cc1OC`: the GI50 in [1] was 1.94 µM; in assay [2] it was 2.36 µM; in assay [3], 1.82 µM; in [4], 22.9 µM; in assay [5] it was 4.99 µM; in assay [10], 1.81 µM. Besides, the GI50 is 12.2 µM in assay [6], 3.55 µM in [7] and 2.62 µM in assay [8]. For the same compound, the TGI was 4.97 µM in assay [1]; over 100 µM in assay [2]; 4.18 µM in assay [3]; 88.8 µM in assay [4]; 21.2 µM in assay [5]; 3.43 µM in assay [10]. Further, the TGI turned out to be 33.9 µM in assay [6], 15.7 µM in assay [7] and 12.3 µM in [8].
Consider `CCC12CCCN(Cc3ccccc3)C1c1c(n(C)c3ccccc13)CC2` (centres undefined), for which the TGI is over 25.3 µM in assay [1]; over 253 µM in assay [2]; over 253 µM in [4]; over 253 µM in [5]; over 253 µM in [10]; over 253 µM in assay [6]. In addition, the TGI in [7] and in [8] was over 253 µM each time.
With `Nc1nc(Cl)cc(NCCCCCCCCNc2cc(Cl)nc(N)n2)n1`, the TGI in [1] is over 100 µM; in [2] it was over 100 µM; in assay [3] it was over 100 µM; in [4], 48.5 µM; in [5] it was over 100 µM; in assay [10], 72 µM. Also, the values for the TGI in [6], in [7] and in [8] were 92.1 µM, over 100 µM and 95.3 µM, respectively.
`Cc1c2n(c(=O)[nH]c1=O)C1OC(CO)C(O2)C1O` (centres undefined): the TGI in assay [9], in [1], in assay [2], in assay [4], in assay [5] and in assay [10] was over 100 µM throughout. The TGI in assay [6], in assay [7] and in [8] was over 100 µM each time.
With `S=C(Nc1ccc(Cl)cc1)Nc1ccc(-c2nc3ccccc3s2)cc1`, the GI50 was 14.9 µM in assay [1]; 7.28 µM in assay [2]; 14.3 µM in assay [3]; 17.9 µM in assay [4]; 13.9 µM in [5]; 16.6 µM in [10]. Besides, the GI50 in assay [6] was 16.1 µM; in assay [7], 15.1 µM; in assay [8], 10.4 µM. The TGI in assay [1] came out at 32.2 µM; in assay [2] it was 47.2 µM; in [3], 28 µM; in [4] it was 47.4 µM; in assay [5] it was 33.4 µM; in assay [10] it was 37.1 µM. Further, the TGI in assay [6] is 40.6 µM; in assay [7], 44.5 µM; in assay [8] it was 24.8 µM.
With `O=C1CCC(Cl)=CC2CCCN12` (centres undefined), the TGI in assay [9], in [1], in assay [2], in [3], in assay [4] and in assay [5] was over 100 µM each time. Also, the TGI in [10], in assay [7] and in assay [8] was over 100 µM in each case.
Consider `NC(=S)N/N=C/C(=O)O`, for which the GI50 was over 100 µM in [9]; 96.8 µM in assay [1]; 27 µM in [2]; over 100 µM in assay [3]; over 100 µM in assay [4]; over 100 µM in assay [5]. Moreover, the GI50 in [6] was over 100 µM. Further, the TGI in assay [9], in assay [1], in [2], in assay [3], in assay [4] and in [5] was over 100 µM throughout. Besides, the TGI in assay [6] is over 100 µM.
With `N.N.N.N.O=C([O-])CCl.O=C([O-])CCl.[Co+3].[O-][Cl+3]([O-])([O-])[O-]`, the GI50 in [9], in assay [1], in assay [2], in assay [3], in assay [5] and in assay [6] was over 100 µM in each case. In addition, the GI50 in [7] and in [8] was over 100 µM each time. Besides, the TGI in assay [9], in assay [1], in assay [2], in assay [3], in [5] and in [6] was over 100 µM throughout. For the same compound, the TGI in assay [7] and in assay [8] was over 100 µM each time.
As to `COc1ccc2occ(CCC(=O)O)c2c1`, the TGI in [9], in [1], in assay [2], in assay [3], in assay [5] and in [10] was over 100 µM each time. The TGI in assay [6], in [7] and in [8] was over 100 µM in each case.
Regarding `CCC(=O)CC(=O)CCC(=O)Nc1cc(C)ccc1C`, the TGI in assay [9], in [1], in assay [2], in assay [3], in [5] and in assay [10] was over 100 µM in each case. Also, the TGI in assay [6], in assay [7] and in assay [8] was over 100 µM throughout.
Turning to `[N-]=[N+]=NC1(Cc2ccccc2)C(=O)c2cccc3c2N(CCC3)C1=O` (centres undefined), the TGI in [1], in [2], in assay [3], in [4], in assay [5] and in [10] was over 100 µM throughout. In addition, the TGI in assay [6], in [7] and in assay [8] was over 100 µM throughout.
Consider `Clc1ccc2c(c1)[nH]c1c2nc2ccccn21`, for which the TGI in assay [9] is > 100 µM and 44.5 µM; in [1], > 100 µM and 74.2 µM; in [2], 74.8 µM and 37.3 µM; in assay [3], 64.5 µM and 36.9 µM; in assay [4] it was 44.7 µM and 63.9 µM; in assay [5], > 100 µM and 35.9 µM. The TGI in [10] is 68.3 µM and 24.2 µM; in [6] it was > 100 µM and 35.4 µM; in [7], 31.2 µM. Moreover, the GI50 in assay [2] was 23.9 µM and 3.96 µM; in [5], 44.3 µM and 17.4 µM; in assay [10], 26.6 µM and 11.7 µM; in assay [6] it was > 100 µM and 15.7 µM.
`CSc1nc(=O)n(CCC#N)nc1SC`: the TGI in assay [9] is over 100 µM; in assay [1], over 100 µM; in assay [2] it was 71.1 µM; in [3], 39.9 µM; in assay [4], 84.2 µM; in assay [5], over 100 µM. Also, the TGI in assay [6], in [7] and in assay [8] was over 100 µM throughout.
In the case of `NC(=S)N/N=C(\CC1OC(=O)c2ccccc21)c1ccc(Cl)cc1` (centres undefined), the TGI in assay [1] was over 100 µM; in assay [2], over 100 µM; in assay [3], over 100 µM; in assay [4] it was 53.3 µM; in assay [5], over 100 µM; in assay [10], 49 µM. Moreover, the TGI in [6] was over 100 µM; in [7], over 100 µM; in assay [8], 47.2 µM.
Consider `O=[N+]([O-])c1cccc(C2=NN(c3ccccc3)C[N+](c3ccc(Br)cc3)=N2)c1`, for which the TGI in assay [9], in assay [1], in assay [2], in assay [3], in assay [5] and in [10] was over 100 µM throughout. Besides, the TGI in assay [6], in assay [7] and in assay [8] was over 100 µM each time.
For `c1ccc2cc(-c3cc4ccccc4s3)ccc2c1`, the TGI in assay [9], in [1], in [2], in assay [3], in assay [4] and in assay [5] was over 100 µM in each case. In addition, the TGI in assay [6], in assay [7] and in [8] was over 100 µM in each case.
In the case of `CC(C)C1=CC23CCC4C(C)(C(=O)O)CCCC4(C)C2CC1C1C(=O)N(c2ccc(Cc4ccc(N5C(=O)C6C7CC8C9(C)CCCC(C)(C(=O)O)C9CCC8(C=C7C(C)C)C6C5=O)cc4)cc2)C(=O)C13` (centres undefined), the TGI is 22.5 µM in assay [9]; 15.7 µM in [1]; over 100 µM in assay [2]; 22.1 µM in assay [3]; 28.4 µM in assay [4]; 27.4 µM in assay [10]. In addition, the TGI in assay [7] and in [8] was 29.7 µM each time.
